Measured values from the supplement of paper PMC11061612.

What was measured:
[1] = test system: SU-DHL-6 (B-Cell Non-Hodgkin's Lymphoma); assay: Bliss excess, mean over the matrix (fraction); higher = more synergy
How it was run: (§1)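 Cell lines grown in DMEM/F12 or RPMI with 10% FBS were plated in 1536-well plates and held 24 hours at 37°C, 5% CO2 before 72 hours of exposure to two-drug dose matrices, with DMSO typically at 0.2%. CellTiter-Glo 2.0 luminescence gave viability, which was converted to inhibition. Vehicle wells were set to 0 and blank wells to 1. Combination Emax is the second-highest inhibition in the matrix, and Bliss excess is the observed combination effect minus the expected EA + EB − EA·EB, where EA and EB are the single-agent effects.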

[2] = test system: HARA (Squamous Cell Lung Carcinoma); assay: as above
How it was run: as §1

[3] = test system: OVCAR-8 (Ovarian Carcinoma); assay: as above
How it was run: as §1

[4] = test system: SW1116 (Colorectal Carcinoma); assay: as above
How it was run: as §1

COLO-829 (Melanoma) = assay: combination Emax (second highest fraction inhibited in the dose matrix, 72 h); higher = more inhibition; extreme values may be limits of the assay
How it was run: as §1

NB14 (Neuroblastoma) = assay: as above
How it was run: as §1

[5] = test system: SUP-T1 (T-Lymphoblastic Leukemia); assay: as above
How it was run: as §1

[6] = test system: EN (Endometrial Carcinoma); assay: as above
How it was run: as §1

[7] = test system: PCI-30 (Head and Neck Carcinoma); assay: as above
How it was run: as §1

NCI-H2461 (Mesothelioma) = assay: as above
How it was run: as §1

[8] = test system: 639-V (Bladder Carcinoma); assay: as above
How it was run: as §1

SH-4 (Melanoma) = assay: as above
How it was run: as §1

[9] = test system: HARA (Squamous Cell Lung Carcinoma); assay: as above
How it was run: as §1

[10] = test system: HCC-15 (Squamous Cell Lung Carcinoma); assay: as above
How it was run: as §1

[11] = test system: CAPAN-1 (Pancreatic Carcinoma); assay: as above
How it was run: as §1

[12] = test system: TE-4 (Esophageal Squamous Cell Carcinoma); assay: as above
How it was run: as §1

[13] = test system: UMC-11 (Other Solid Carcinomas); assay: as above
How it was run: as §1

[14] = test system: SW1116 (Colorectal Carcinoma); assay: as above
How it was run: as §1

[15] = test system: SK-OV-3 (Ovarian Carcinoma); assay: as above
How it was run: as §1

[16] = test system: KYSE-410 (Esophageal Squamous Cell Carcinoma); assay: as above
How it was run: as §1
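Wherever Bliss excess, mean over the matrix is given: after 72 h of two-drug dosing.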

SMILES	Bliss excess [1]	Bliss excess [2]	Bliss excess [3]	Bliss excess [4]	combination Emax (COLO-829 (Melanoma))	combination Emax (NB14 (Neuroblastoma))	combination Emax [5]	combination Emax [6]	combination Emax [7]	combination Emax (NCI-H2461 (Mesothelioma))	combination Emax [8]	combination Emax (SH-4 (Melanoma))	combination Emax [9]	combination Emax [10]	combination Emax [11]	combination Emax [12]	combination Emax [13]	combination Emax [14]	combination Emax [15]	combination Emax [16]
COc1cc2ncnc(Nc3ccc(F)c(Cl)c3)c2cc1OCCCN1CCOCC1 [Gefitinib] + CC(C)n1c(=O)n(C)c2cnc3cc(F)c(-c4ccc(OCCCN5CCCCC5)nc4)cc3c21 [AZD1390] (first compound max 10 µM, 7x7, partner max 0.3 µM)	0.0167	-0.0343	-0.0633	-0.0835	0.143	0.128	0.382	0.248	0.131	0.256	0.158	0.149	0.298	0.0725	0.253	0.981	0.0797	0.241	0.285	0.362
CS(=O)(=O)CCNCc1ccc(-c2ccc3ncnc(Nc4ccc(OCc5cccc(F)c5)c(Cl)c4)c3c2)o1 [Lapatinib] + C[C@@H](Oc1cc(-c2cnn(C3CCNCC3)c2)cnc1N)c1c(Cl)ccc(F)c1Cl [Crizotinib] (first compound max 10 µM, 7x7, partner max 10 µM)	-0.0299	-0.0259	-0.037	-0.0106	0.711	0.979	0.875	0.559	0.366	0.91	0.853	0.883	0.95	0.945	0.527	1	0.703	0.688	0.776	0.934
CC(=O)c1c(C)c2cnc(Nc3ccc(N4CCNCC4)cn3)nc2n(C2CCCC2)c1=O [Palbociclib] + CC1(C)CCC(CN2CCN(c3ccc(C(=O)NS(=O)(=O)c4ccc(NCC5CCOCC5)c([N+](=O)[O-])c4)c(Oc4cnc5[nH]ccc5c4)c3)CC2)=C(c2ccc(Cl)cc2)C1 [Venetoclax] (first compound max 10 µM, 7x7, partner max 1 µM)	0.0694	0.0119	-0.0167	-0.0435	0.298	0.734	0.618	0.146	0.223	0.308	0.147	0.271	0.496	0.177	0.21	0.217	0.507	0.04	0.144	0.136
CC(=O)c1c(C)c2cnc(Nc3ccc(N4CCNCC4)cn3)nc2n(C2CCCC2)c1=O [Palbociclib] + Cc1c2c(nn1C)CSCc1cc(n(C)n1)CSc1cc(c3ccccc3c1)OCCCc1c(C(=O)O)n(C)c3c-2c(Cl)ccc13 [AZD5991] (first compound max 10 µM, 7x7, partner max 1 µM)	0.0709	0.021	-0.0281	-0.025	0.388	0.822	0.656	0.566	0.276	0.377	0.269	0.314	0.559	0.247	0.245	0.966	0.638	0.164	0.179	0.407
CC(=O)c1c(C)c2cnc(Nc3ccc(N4CCNCC4)cn3)nc2n(C2CCCC2)c1=O [Palbociclib] + Cn1cnc2c(F)c(Nc3ccc(Br)cc3Cl)c(C(=O)NOCCO)cc21 [Selumetinib] (first compound max 10 µM, 7x7, partner max 10 µM)	0.167	0.0219	-0.0412	-0.0189	0.614	0.705	0.599	0.184	0.223	0.395	0.259	0.886	0.499	0.547	0.382	0.403	0.462	0.396	0.237	0.261
COc1cccc(OCCCN)c1-c1cc(Nc2cnc(C#N)cn2)n[nH]1 [Prexasertib] + C=CCn1c(=O)c2cnc(Nc3ccc(N4CCN(C)CC4)cc3)nc2n1-c1cccc(C(C)(C)O)n1 [AZD1775] (first compound max 1 µM, partner max 1 µM)	0.25	0.075	0.0937	0.0689	0.237	1	0.848	0.859	0.894	0.745	0.805	0.742	0.984	0.542	0.577	0.813	0.936	0.63	0.875	0.584
COc1cccc(OCCCN)c1-c1cc(Nc2cnc(C#N)cn2)n[nH]1 [Prexasertib] + CCc1c2c(nc3ccc(O)cc13)-c1cc3c(c(=O)n1C2)COC(=O)[C@]3(O)CC [SN-38] (first compound max 1 µM, 7x7, partner max 0.3 µM)	0.157	0.0262	0.0373	0.076	0.662	1	0.819	0.75	0.966	0.705	1	0.684	0.966	0.857	0.809	0.881	0.959	0.763	0.853	0.705
